Test results reported in patent US20110097773A1, “METHOD FOR PRODUCING BUTANOL USING EXTRACTIVE FERMENTATION” (BUTAMAX(TM) ADVANCED BIOFUELS LLC, priority 2009, published 2011).

What was measured:
[1] = test system: S. cerevisiae BY4741; experiment: Biocompatibility of extractants: glucose utilization rate of the microorganism during extraction; assay type: cell-based, Saccharomyces cerevisiae; details: percentage of average value for oleyl alcohol (Comparative Example A); 25 mL extractant/75 mL culture broth, 40 g/L initial isobutanol, 30° C., 8 hours
Procedure: (§1) Each extractant was contacted with a fermentation medium and isobutanol as described below to determine the partition coefficient of the extractant. The biocompatibility of the extractant was also assessed by determining the glucose utilization rate of the microorganism during the extraction.
The following experimental procedure was used. In these experiments the amount of ethanol depended on the amount of glucose consumption but typical ethanol values were in the range of 10-15 g/L. The presence of ethanol in these concentrations is not expected to impact glucose consumption and the partitioning of butanol into the extractant. Seed shake flasks containing 250 mL of yeast extract/peptone/dextrose (YPD) medium were inoculated with 150 μL of S. cerevisiae BY4741 inoculum and incubated for about 14 hours at 30° C. with shaking at 250 rpm in a table top shaker (Innova 4230, New Brunswick scientific, Edison, N.J.). When the OD600 reached about 0.4, the glucose concentration in the culture broth was analyzed rapidly by a Select Biochemistry Analyzer and extra glucose was added to reach a final concentration of about 25 g/L. The culture broth was divided into 125 mL flasks, each containing 75 mL of the culture broth. After one hour of incubation at 30° C. with shaking at 200 rpm, 3.75 mL of isobutanol was added to each flask in order to bring the initial isobutanol concentration in the aqueous phase to 40 g/L. The incubation of the biphasic fermentation medium comprising an aqueous phase and a butanol-containing organic phase was continued at 30° C. with shaking at 100 rpm for 8 hours. The aqueous and organic phases in each flask were separated by decantation. The aqueous phase was centrifuged (2 minutes on 13,000 rpm with an Eppendorf centrifuge model 5415R) to remove cells and the supernatant analyzed for glucose, ethanol, and isobutanol by HPLC.
Glucose utilization rates were calculated by noting the difference in glucose concentrations between samples and the time between samples and computing a rate accordingly, for example ([glucose]t2−[glucose]t1)/(t2−t1) where t1 refers to a time earlier than t2 and [glucose] means the concentration of glucose.
Comparative Example A was repeated three times and the results averaged. For the extractants of Comparative Examples A-G, the partition coefficient for isobutanol and the glucose utilization rate are expressed below in Table 3 as percentages of the average values determined for oleyl alcohol (Comparative Example A). A value greater than 100% indicates a result which is numerically larger than that for oleyl alcohol. A value less than 100% indicates a result which is numerically smaller than that for oleyl alcohol. A value of 100% indicates a result which is the same as that for oleyl alcohol. As disclosed in US Patent Application Publication No. 2009-0305370 A1, oleyl alcohol performed well in single solvent extractive fermentations for isobutanol production.
(§2) The extractants listed in Table 2 were evaluated using the procedure described above, but with the following modifications. After the culture broth was divided into 125 mL flasks, each containing 75 mL of the culture broth, oleyl alcohol was added as the first solvent to each flask in the amount shown in Table 2.
For the extractants of Examples 1-15, the partition coefficients for isobutanol and the glucose utilization rate are expressed below in Table 3, together with the results for Comparative examples A-G, as percentages of the average values determined for oleyl alcohol (Comparative Example A). A value greater than 100% indicates a result which is numerically larger than that for oleyl alcohol. A value less than 100% indicates a result which is numerically smaller than that for oleyl alcohol. A value of 100% indicates a result which is the same as that for oleyl alcohol.

[2] = Partition coefficient for isobutanol between extractant (organic phase) and fermentation medium (aqueous phase); assay type: physicochemical; details: isobutanol partition coefficient (organic/aqueous) as percentage of average value for oleyl alcohol (Comparative Example A); 40 g/L initial isobutanol, 30° C.
Procedure: as §1
The following experimental procedure was used. […] When the OD600 reached about 0.4, the glucose concentration in the culture broth was analyzed rapidly by a Select Biochemistry Analyzer and extra glucose was added to reach a final concentration of about 25 g/L. The culture broth was divided into 125 mL flasks, each containing 75 mL of the culture broth. After one hour of incubation at 30° C. with shaking at 200 rpm, 3.75 mL of isobutanol was added to each flask in order to bring the initial isobutanol concentration in the aqueous phase to 40 g/L. The incubation of the biphasic fermentation medium comprising an aqueous phase and a butanol-containing organic phase was continued at 30° C. with shaking at 100 rpm for 8 hours. The aqueous and organic phases in each flask were separated by decantation.
Partition coefficients for the isobutanol distribution between the organic and aqueous phases were calculated from the known amount of isobutanol added to the flask and the isobutanol concentration data measured for the aqueous phase. The concentration of isobutanol in the extractant phase was determined by the mass balance. The partition coefficient was determined as the ratio of the isobutanol concentrations in the organic and the aqueous phases, i.e., Kp=[Isobutanol]Organic phase/[isobutanol]Aqueous phase.
(§3) A value greater than 100% indicates a result which is numerically larger than that for oleyl alcohol. A value less than 100% indicates a result which is numerically smaller than that for oleyl alcohol. A value of 100% indicates a result which is the same as that for oleyl alcohol.
as §2, §3

Row | Compound | % Glucose Utilization Rate [1] [%] | % KP [2] [%]
1 | CCCCCCCCCO [Comparative Ex. B, 1-Nonanol] | 0 | –
2 | CCCCCCCCCCCCO [Comparative Ex. G, 1-Dodecanol] | 84 | –
3 | CCCCCCCC/C=C\CCCCCCCCO [Comparative Ex. A, Oleyl Alcohol] | 100 | 100
4 | CCCCCCCCC=O [Comparative Ex. E, 1-Nonanal] | 0 | 132.6
5 | CCCCCCCCCCO [Comparative Ex. F, 1-Decanol] | 0 | 139.0
6 | CCCCCCCCCC(C)O (stereo not drawn) [Comparative Ex. D, 2-Undecanol] | 0 | 139.0
7 | CCCCCCCCCCCO [Comparative Ex. C, 1-Undecanol] | 0 | 127.0
